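Growth conditions: 96-well plates. Treatment: test compound, 48 hours, 5 concentrations. Analysis: linear interpolation between bracketing concentrations; unreached endpoints set to highest concentration. Here, GI50 denotes the concentration required for 50% inhibition of growth. The concentration for full growth arrest is given as TGI.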
Tests used:
Assay in all cases: NCI tumour cell line growth inhibition, 48 h; in the data active = GI50 below about 0.43 µM; inactive = the rest
786-0 renal = test system: 786-0 renal
A498 renal = test system: A498 renal
A549 NSCLC = test system: A549 NSCLC
ACHN renal = test system: ACHN renal
CAKI-1 renal = test system: CAKI-1 renal
CCRF-CEM leukemia = test system: CCRF-CEM leukemia
COLO 205 colon = test system: COLO 205 colon
DLD-1 colon = test system: DLD-1 colon
DMS 114 small cell lung = test system: DMS 114 small cell lung
EKVX NSCLC = test system: EKVX NSCLC
HCC-2998 colon = test system: HCC-2998 colon
HCT-116 colon = test system: HCT-116 colon
HCT-15 colon = test system: HCT-15 colon
HL-60(TB) leukemia = test system: HL-60(TB) leukemia
HOP-18 NSCLC = test system: HOP-18 NSCLC
HOP-62 NSCLC = test system: HOP-62 NSCLC
HOP-92 NSCLC = test system: HOP-92 NSCLC
HT29 colon = test system: HT29 colon
IGROV1 ovarian = test system: IGROV1 ovarian
K-562 leukemia = test system: K-562 leukemia
KM12 colon = test system: KM12 colon
KM20L2 colon = test system: KM20L2 colon
LOX IMVI melanoma = test system: LOX IMVI melanoma
LXFL 529 NSCLC = test system: LXFL 529 NSCLC
M14 melanoma = test system: M14 melanoma
M19-MEL melanoma = test system: M19-MEL melanoma
MALME-3M melanoma = test system: MALME-3M melanoma
MOLT-4 leukemia = test system: MOLT-4 leukemia
NCI-H23 lung = test system: NCI-H23 lung
NCI-H460 lung = test system: NCI-H460 lung
NCI-H522 lung = test system: NCI-H522 lung
OVCAR-4 ovarian = test system: OVCAR-4 ovarian
OVCAR-5 ovarian = test system: OVCAR-5 ovarian
OVCAR-8 ovarian = test system: OVCAR-8 ovarian
RPMI-8226 leukemia = test system: RPMI-8226 leukemia
RXF 393 renal = test system: RXF 393 renal
RXF-631 renal = test system: RXF-631 renal
SF-268 CNS = test system: SF-268 CNS
SF-295 CNS = test system: SF-295 CNS
SF-539 CNS = test system: SF-539 CNS
SK-MEL-2 melanoma = test system: SK-MEL-2 melanoma
SK-MEL-28 melanoma = test system: SK-MEL-28 melanoma
SK-MEL-5 melanoma = test system: SK-MEL-5 melanoma
SK-OV-3 ovarian = test system: SK-OV-3 ovarian
SN12C renal = test system: SN12C renal
SNB-19 CNS = test system: SNB-19 CNS
SNB-75 CNS = test system: SNB-75 CNS
SR leukemia = test system: SR leukemia
SW-620 colon = test system: SW-620 colon
TK-10 renal = test system: TK-10 renal
U251 CNS = test system: U251 CNS
UACC-257 melanoma = test system: UACC-257 melanoma
UACC-62 melanoma = test system: UACC-62 melanoma
UO-31 renal = test system: UO-31 renal
XF 498 CNS = test system: XF 498 CNS
NCI-H226 lung = test system: NCI-H226 lung
SNB-78 CNS = test system: SNB-78 CNS
DMS 273 small cell lung = test system: DMS 273 small cell lung
OVCAR-3 ovarian = test system: OVCAR-3 ovarian

CN(C)CCc1ccc(Cl)cc1Cl
> 100 µM: TGI (786-0 renal) | TGI (A498 renal) | TGI (A549 NSCLC) | TGI (ACHN renal) | TGI (CAKI-1 renal) | TGI (CCRF-CEM leukemia) | TGI (COLO 205 colon) | TGI (DLD-1 colon) | TGI (DMS 114 small cell lung) | TGI (EKVX NSCLC) | TGI (HCC-2998 colon) | TGI (HCT-116 colon) | TGI (HCT-15 colon) | TGI (HL-60(TB) leukemia) | TGI (HOP-18 NSCLC) | TGI (HOP-62 NSCLC) | TGI (HOP-92 NSCLC) | TGI (HT29 colon) | TGI (IGROV1 ovarian) | TGI (K-562 leukemia) | TGI (KM12 colon) | TGI (KM20L2 colon) | TGI (LOX IMVI melanoma) | TGI (LXFL 529 NSCLC) | TGI (M14 melanoma) | TGI (M19-MEL melanoma) | TGI (MALME-3M melanoma) | TGI (MOLT-4 leukemia) | TGI (NCI-H23 lung) | TGI (NCI-H460 lung) | TGI (NCI-H522 lung) | TGI (OVCAR-4 ovarian) | TGI (OVCAR-5 ovarian) | TGI (OVCAR-8 ovarian) | TGI (RPMI-8226 leukemia) | TGI (RXF 393 renal) | TGI (RXF-631 renal) | TGI (SF-268 CNS) | TGI (SF-295 CNS) | TGI (SF-539 CNS) | TGI (SK-MEL-2 melanoma) | TGI (SK-MEL-28 melanoma) | TGI (SK-MEL-5 melanoma) | TGI (SK-OV-3 ovarian) | TGI (SN12C renal) | TGI (SNB-19 CNS) | TGI (SNB-75 CNS) | TGI (SR leukemia) | TGI (SW-620 colon) | TGI (TK-10 renal) | TGI (U251 CNS) | TGI (UACC-257 melanoma) | TGI (UACC-62 melanoma) | TGI (UO-31 renal) | TGI (XF 498 CNS)

N#C/C(=C/c1ccco1)C(=O)c1ccccc1
> 100 µM: TGI (786-0 renal) | TGI (A498 renal) | TGI (A549 NSCLC) | TGI (ACHN renal) | TGI (CAKI-1 renal) | TGI (CCRF-CEM leukemia) | TGI (COLO 205 colon) | TGI (DLD-1 colon) | TGI (DMS 114 small cell lung) | TGI (EKVX NSCLC) | TGI (HCC-2998 colon) | TGI (HCT-116 colon) | TGI (HCT-15 colon) | TGI (HL-60(TB) leukemia) | TGI (HOP-18 NSCLC) | TGI (HOP-92 NSCLC) | TGI (HT29 colon) | TGI (IGROV1 ovarian) | TGI (K-562 leukemia) | TGI (KM12 colon) | TGI (LOX IMVI melanoma) | TGI (LXFL 529 NSCLC) | TGI (M14 melanoma) | TGI (M19-MEL melanoma) | TGI (MALME-3M melanoma) | TGI (MOLT-4 leukemia) | TGI (NCI-H226 lung) | TGI (NCI-H23 lung) | TGI (NCI-H460 lung) | TGI (NCI-H522 lung) | TGI (OVCAR-4 ovarian) | TGI (OVCAR-5 ovarian) | TGI (OVCAR-8 ovarian) | TGI (RPMI-8226 leukemia) | TGI (RXF-631 renal) | TGI (SF-268 CNS) | TGI (SF-295 CNS) | TGI (SF-539 CNS) | TGI (SK-MEL-2 melanoma) | TGI (SK-MEL-28 melanoma) | TGI (SK-MEL-5 melanoma) | TGI (SK-OV-3 ovarian) | TGI (SN12C renal) | TGI (SNB-75 CNS) | TGI (SNB-78 CNS) | TGI (SR leukemia) | TGI (SW-620 colon) | TGI (TK-10 renal) | TGI (U251 CNS) | TGI (UACC-257 melanoma) | TGI (UACC-62 melanoma) | TGI (UO-31 renal) | TGI (XF 498 CNS)

N/N=C(/Cc1ccccc1)NNC(N)=S
> 100 µM: TGI (786-0 renal) | TGI (A498 renal) | TGI (A549 NSCLC) | TGI (ACHN renal) | TGI (CCRF-CEM leukemia) | TGI (COLO 205 colon) | TGI (DLD-1 colon) | TGI (DMS 114 small cell lung) | TGI (DMS 273 small cell lung) | TGI (EKVX NSCLC) | TGI (HCC-2998 colon) | TGI (HCT-15 colon) | TGI (HL-60(TB) leukemia) | TGI (HOP-18 NSCLC) | TGI (HOP-62 NSCLC) | TGI (HOP-92 NSCLC) | TGI (HT29 colon) | TGI (IGROV1 ovarian) | TGI (K-562 leukemia) | TGI (KM12 colon) | TGI (KM20L2 colon) | TGI (LOX IMVI melanoma) | TGI (LXFL 529 NSCLC) | TGI (M14 melanoma) | TGI (M19-MEL melanoma) | TGI (MALME-3M melanoma) | TGI (MOLT-4 leukemia) | TGI (NCI-H226 lung) | TGI (NCI-H460 lung) | TGI (OVCAR-4 ovarian) | TGI (OVCAR-5 ovarian) | TGI (OVCAR-8 ovarian) | TGI (RPMI-8226 leukemia) | TGI (RXF 393 renal) | TGI (RXF-631 renal) | TGI (SF-268 CNS) | TGI (SF-295 CNS) | TGI (SF-539 CNS) | TGI (SK-MEL-2 melanoma) | TGI (SK-MEL-28 melanoma) | TGI (SK-OV-3 ovarian) | TGI (SNB-75 CNS) | TGI (SW-620 colon) | TGI (TK-10 renal) | TGI (U251 CNS) | TGI (UACC-257 melanoma) | TGI (UACC-62 melanoma) | TGI (UO-31 renal) | TGI (XF 498 CNS)
76 µM: TGI (NCI-H522 lung)

O=C1OC(c2cccc(C(F)(F)F)c2)c2ccc3ccccc3c21 (centres undefined)
> 100 µM: TGI (786-0 renal) | TGI (A498 renal) | TGI (A549 NSCLC) | TGI (CAKI-1 renal) | TGI (CCRF-CEM leukemia) | TGI (COLO 205 colon) | TGI (DLD-1 colon) | TGI (DMS 114 small cell lung) | TGI (EKVX NSCLC) | TGI (HCC-2998 colon) | TGI (HCT-15 colon) | TGI (HL-60(TB) leukemia) | TGI (HOP-18 NSCLC) | TGI (HOP-62 NSCLC) | TGI (HOP-92 NSCLC) | TGI (IGROV1 ovarian) | TGI (K-562 leukemia) | TGI (KM12 colon) | TGI (KM20L2 colon) | TGI (LXFL 529 NSCLC) | TGI (M14 melanoma) | TGI (M19-MEL melanoma) | TGI (MOLT-4 leukemia) | TGI (NCI-H226 lung) | TGI (NCI-H23 lung) | TGI (OVCAR-3 ovarian) | TGI (OVCAR-4 ovarian) | TGI (OVCAR-5 ovarian) | TGI (OVCAR-8 ovarian) | TGI (RXF 393 renal) | TGI (RXF-631 renal) | TGI (SF-295 CNS) | TGI (SF-539 CNS) | TGI (SK-MEL-2 melanoma) | TGI (SK-MEL-28 melanoma) | TGI (SK-OV-3 ovarian) | TGI (SN12C renal) | TGI (SNB-19 CNS) | TGI (SNB-75 CNS) | TGI (SNB-78 CNS) | TGI (SW-620 colon) | TGI (TK-10 renal) | TGI (UACC-257 melanoma) | TGI (UO-31 renal) | TGI (XF 498 CNS)
inactive: GI50 (786-0 renal) > 100 µM | GI50 (A498 renal) > 100 µM | GI50 (CAKI-1 renal) > 100 µM | GI50 (CCRF-CEM leukemia) 5.19 µM | GI50 (COLO 205 colon) > 100 µM | GI50 (EKVX NSCLC) > 100 µM | GI50 (HCC-2998 colon) > 100 µM | GI50 (HCT-15 colon) 6.21 µM | GI50 (HOP-18 NSCLC) > 100 µM | GI50 (HOP-62 NSCLC) > 100 µM | GI50 (IGROV1 ovarian) > 100 µM | GI50 (K-562 leukemia) 25 µM | GI50 (KM12 colon) > 100 µM | GI50 (KM20L2 colon) > 100 µM | GI50 (M14 melanoma) > 100 µM | GI50 (M19-MEL melanoma) > 100 µM | GI50 (MOLT-4 leukemia) 4.99 µM | GI50 (NCI-H226 lung) > 100 µM | GI50 (OVCAR-3 ovarian) > 100 µM | GI50 (OVCAR-4 ovarian) > 100 µM | GI50 (OVCAR-5 ovarian) > 100 µM | GI50 (OVCAR-8 ovarian) > 100 µM | GI50 (RXF-631 renal) > 100 µM | GI50 (SK-MEL-2 melanoma) > 100 µM | GI50 (SK-MEL-28 melanoma) > 100 µM | GI50 (SK-OV-3 ovarian) > 100 µM | GI50 (SN12C renal) > 100 µM | GI50 (SNB-19 CNS) > 100 µM | GI50 (SW-620 colon) > 100 µM | GI50 (TK-10 renal) > 100 µM | GI50 (UACC-257 melanoma) 8.64 µM
